Earlier results, collected in patent publication US11351185B2, “Use of isovalerylspiramycins as anti-cancer agents to inhibit metastasis” (priority 2020, dated 2022).

Columns and labels:
[1] = system: human cancer lines; settings: MCF-7, MDA-MB-231, HepG2, A549, H460, H1299, 786-0, 769-P, U251, A172, U937, HeLa, PC3, PANC-1, TE-1, SGC-7901, HT-29, HL-60; cited from earlier work
[2] = system: in vivo cancer parameters; settings: animal models; cited from earlier work

| Structure (SMILES) | effect on proliferation in vitro of human cancer lines [1] | in vivo cancer parameters such as tumor growth rate and relative tumor volume [2] |
| --- | --- | --- |
| CO[C@@H]1[C@@H](O[C@@H]2O[C@H](C)[C@@H](O[C@H]3C[C@@](C)(O)[C@@H](OC(=O)CC(C)C)[C@H](C)O3)[C@H](N(C)C)[C@H]2O)[C@@H](CC=O)C[C@@H](C)[C@@H](O[C@H]2CC[C@H](N(C)C)[C@@H](C)O2)/C=C/C=C/C[C@@H](C)OC(=O)C[C@H]1OC(C)=O [ISP II, 4″-isolvalerylspiramycin II] | inhibitory effect | reduction |
| CCC(=O)O[C@@H]1CC(=O)O[C@H](C)C/C=C/C=C/[C@H](O[C@H]2CC[C@H](N(C)C)[C@@H](C)O2)[C@H](C)C[C@H](CC=O)[C@H](O[C@@H]2O[C@H](C)[C@@H](O[C@H]3C[C@@](C)(O)[C@@H](OC(=O)CC(C)C)[C@H](C)O3)[C@H](N(C)C)[C@H]2O)[C@H]1OC [ISP III, 4″-isolvalerylspiramycin III] | inhibitory effect | reduction |
